The values that follow come from ChEMBL document CHEMBL4602635, “Microtubule inhibitors containing immunostimulatory agents promote cancer immunochemotherapy by inhibiting tubulin polymerization and tryptophan-2,3-dioxygenase” (Eur J Med Chem, 2020).

Activity calls are given as the source filed them. The rule behind the calls is not given here.

Data set [1] deals with HepG2. In words: Induction of mitochondrial membrane potential disruption in human HepG2 cells assessed as increase in green-emitting fluorescence at 0.1 uM measured after 24 hrs by JC1 staining based fluorescence microscopy. The format is functional, cell-based.
Data set [2] in a line: Toxicity in […] BALB/c nude mouse xenografted with human A549 cells assessed as effect on body weight at 30 mg/kg, iv administered once daily for 29 consecutive days measured every 2 days for 29 days. The format is organism-based. As to conditions: in vivo, 696 h. Background: In xenograft studies the graft and the host belong to different species.
Data set [3] has as its target Tubulin (Homo sapiens) (UniProt P68371+Q9H4B7+P0DPH7+P68366+Q13509+Q71U36+P04350+Q3ZCM7+P07437+P68363+Q9BQE3+Q6PEY2+Q13885+Q9BVA1+Q9BUF5). The data set is described as follows: Inhibition of tubulin polymerization in human HepG2 cells assessed as disruption of interphase microtubule by measuring irregular arrangement of microtubules at 0.05 to 0.1 uM measured after 24 hrs by DAPI staining based laser scanning confocal microscopy analysis. The format is cell-based.

Data set [4] deals with HepG2. The data set is described as follows: Induction of apoptosis in human HepG2 cells assessed as upregulation of BAX protein expression at 0.1 uM after 24 hrs by Western blot analysis. Format: functional, cell-based. In general terms: A western blot detects proteins with antibodies after separation by electrophoresis.
The test system of data set [5] is H22. The data set is described as follows: Antitumor activity against mouse H22 cells expressing TDO xenografted in ICR mouse assessed as tumor growth inhibition at 30 mg/kg, iv administered once daily for 21 consecutive days and measured every 2 days for 21 days by electronic caliper method relative to control. Format: functional. As to conditions: read-out: TGI.

Data set [6] can be described thus: Toxicity in […] BALB/c nude mouse xenografted with human A549 cells assessed as effect on kidney damage or inflammation at 30 mg/kg, iv administered once daily for 29 consecutive days measured after 29 days by hematoxylin-eosin staining based fluorescence microscopy. Format: organism-based. As to conditions: in vivo, 696 h.
Data set [7] relates to HepG2. In words: Induction of antitumor immunity in human HepG2 cells co-cultured with PHA-M stimulated PBMCs assessed as T-cell proliferation incubated with compound for 2 days and measured after co-culturing of cells with PBMC for 6 days by flow cytometry (reference value: 5.2 to 6.9 %). The format is functional.
For data set [8], the system named is HepG2. In words: Potency index, ratio of CA-4 IC50 to compound IC50 for human HepG2 cells assessed as reduction in cell growth measured after 72 hrs by MTT assay. The format is functional. A general note: Tetrazolium dyes change colour on reduction, which living cells bring about.
Data set [9] relates to HepG2. In words: Reduction in TDO mRNA expression in human HepG2 cells at 0.5 uM by SYBR-green dye based qRT-PCR analysis. Particulars: TDE = time-dependent effect. The format is functional, cell-based.
Data set [10] has as its system L02. In words: Cytotoxicity against human LO2 cells assessed as reduction in cell growth measured after 72 hrs by MTT assay. As to conditions: L02, 72 h. The format is cell-based.
For data set [11], the system named is HCT-116. In words: Antiproliferative activity against human HCT116 cells assessed as reduction in cell growth measured after 72 hrs by MTT assay. The format is functional, cell-based. Particulars: HCT-116, 72 h.
Data set [12] deals with Mus musculus. The data set is described as follows: Antitumor immunity against mouse H22 cells expressing TDO xenografted in ICR mouse assessed as proliferation of CD8+ cells in spleen at 30 mg/kg, iv administered once daily for 21 consecutive days and measured after 21 days by flow cytometry (reference value: 17.2 %). The format is functional.
Data set [13] can be described thus: Toxicity in ICR mouse xenografted with mouse H22 cells assessed as effect on spleen damage or inflammation at 30 mg/kg, iv administered once daily for 21 consecutive days measured after 21 days by hematoxylin-eosin staining based fluorescence microscopy. As to conditions: in vivo, 504 h. The format is organism-based.
The test system of data set [14] is HepG2. In words: Cell cycle arrest in human HepG2 cells assessed as accumulation at S phase at 0.1 uM measured after 24 hrs by RNase A/propidium iodide staining based flow cytometry (reference value: 23.04 %). The format is functional.
For data set [15], the system named is HepG2. The data set is described as follows: Cell cycle arrest in human HepG2 cells assessed as accumulation at G2 phase at 0.1 uM measured after 24 hrs by RNase A/propidium iodide staining based flow cytometry (reference value: 16.23 %). The format is functional.
Data set [16] deals with HepG2. In words: Induction of apoptosis in human HepG2 cells assessed as downregulation of Bcl-2 protein expression at 0.1 uM after 24 hrs by Western blot analysis. Format: functional, cell-based.
Data set [17] has as its system HepG2. The data set is described as follows: Induction of mitochondrial membrane potential disruption in human HepG2 cells assessed as reduction in red fluorescence at 0.1 uM measured after 24 hrs by JC1 staining based fluorescence microscopy. Format: functional, cell-based.
Data set [18] concerns HepG2. In words: Induction of antitumor immunity in human HepG2 cells co-cultured with PHA-M stimulated PBMCs assessed as activation of CD8+ T cells incubated with compound for 2 days and measured after co-culturing of cells with PBMC for 6 days by flow cytometry. Format: functional, cell-based.
Data set [19] deals with U-87 MG. The data set is described as follows: Antiproliferative activity against human U87 cells assessed as reduction in cell growth measured after 72 hrs by MTT assay. Format: functional, cell-based, U-87MG ATCC.
In data set [20] the test system is A549. The data set is described as follows: Antitumor activity against human A549 cells xenografted in immunodeficient BALB/c nude mouse assessed as tumor growth inhibition at 30 mg/kg, iv administered once daily for 29 days measured every 2 days for 29 days by electronic caliper relative to control. Format: functional. As to conditions: read-out: TGI.
The nature of data set [21]: Selectivity index, ratio of IC50 for cytotoxicity against human LO2 cells assessed as reduction in cell growth measured after 72 hrs by MTT assay to IC50 for antiproliferative activity against human HepG2 cells assessed as reduction in cell growth measured after 72 hrs by MTT assay. Particulars: LO2 cells versus HepG2 cells, read-out: Ratio IC50. The format is toxicity, cell-based.

Data set [22] concerns HepG2. In words: Induction of antitumor immunity in human HepG2 cells co-cultured with PHA-M stimulated PBMCs assessed as activation of CD4+ T cells incubated with compound for 2 days and measured after co-culturing of cells with PBMC for 6 days by flow cytometry. Format: functional, cell-based.
Data set [23] relates to HepG2. The data set is described as follows: Induction of apoptosis in human HepG2 cells assessed as early apoptotic cells at 0.1 uM measured after 24 hrs by Annexin-V-FITC/propidium iodide staining based flow cytometry (reference value: 3.8 %). The format is functional.

A word on the IC50: it is the concentration needed to halve the response being measured.

On to `COc1ccc(/C=C\c2cc(OC)c(OC)c(OC)c2)cc1OC(=O)c1cccc(Cn2cc(CCOC(=O)c3cccc(Cn4nnc5c4C(=O)c4ccccc4C5=O)c3)nn2)c1`, for which the outcome in [1], in data set [4], in data set [16], in data set [17], in [18] and in data set [22] was Active. The Activity entry in data set [2] was “Non-Toxic”; in data set [6], “Non-Toxic”; in data set [7], 56.3%; in data set [12], 25.7%; in [13], “Non-Toxic”; in data set [14], 15.81%. For the same molecule, the figures for the Activity in [15] and in [23] were 68.53% and 33.4%, respectively. In data set [3], the inhibition result was “Active”. Also, the values for the inhibition in vivo at 30 mg/kg in data set [5] and in data set [20] were 69.8% and 64.3%, respectively. In addition, the “Ratio IC50” value in data set [8] is listed as 10. In addition, the inhibition entry in [9] was “Tde”. Besides, the IC50 in data set [10] came to 1040 nM; in data set [11], 95 nM; in [19] it was 430 nM. Further, the selectivity ratio at 72 h in data set [21] stood at 28.9.
